Patent publication US20250197864A1, “LNCRNA TRANSCRIPTS IN MELANOMAGENESIS” (The Regents of the University of California, priority 2021, published 2025)

System: gene expression in D04 melanoma cells
Experiment: RNA-Seq differential expression analysis (DESeq2)
Format: cell-based, human
Conditions: up-regulated list
Description: Total RNA was isolated using the RNeasy mini Kit (QIAGEN) following the manufacturer's protocol. Quality check for extracted RNA was done using 2100 Bioanalyzer (Agilent Technologies, USA) or Tapestation System (Agilent Technologies, USA). […] For samples used for identification of MAPK-responsive lncRNAs, paired-end, 101-bp sequencing was performed by Centrillion Genomic Services (Centrillion Biosciences, USA) on an Illumina HiSeq 2000. For DE gene analysis of ASO-transfected D04 samples, paired-end, 2×150-bp sequencing was performed by Genewiz (USA) on a Illumina HiSeq.
Sequence reads were aligned to the human genome (hg19) using TopHat (Version 2.0.11).
Differential expression (DE) analysis was done using DESeq2. Differentially expressed genes were defined by more than 1.5-fold changes (log 2 >0.58 or <−0.58) in expression with FDR<0.05. GO term analysis was done using DAVID Functional Annotation Clustering analysis.
To examine the biomolecular changes upon TRASH-inhibition in melanoma, D04 cells were treated with TRASH-ASOs (SEQ ID NO:15) and Control-ASOs and RNA was extracted and used for RNA-Seq. […] These GO terms consisted of genes encoding growth factors, tyrosine kinases, G protein coupled receptor subunits, and collagen subunits. Scatter plot diagram showing differential gene expression after TRASH-ASO treatment compared to Control-ASO treatment. (cut-off for significance was adjusted p-value <0.05). Data was obtained from RNA-Seq of D04 melanoma cells, treatment period was three days. (FIG. 5c)

Question: With “GACTGGAGATAATTAA (gapmer, pattern not given here) [SEQ ID NO: 15, GapmeR ASO targeting AC004540.4 (TRASH), exon region of both isoforms; used for in vitro experiments]” as the sequence, how does the “log2FoldChange HIST3H2A” value (ENSG00000181218) read?
Answer: The value was 0.6762.

Question: What about the “log2FoldChange GPR3” value (ENSG00000181773) of the same sequence?
Answer: Its value is 0.5989.

Question: What about the “log2FoldChange IBA57” value (ENSG00000181873) of the same sequence?
Answer: Its value is 0.6496.

Question: What about the “log2FoldChange KCNJ14” value (ENSG00000182324) of the same sequence?
Answer: The value was 0.8416.

Question: And the “log2FoldChange MEX3B” value (ENSG00000183496)?
Answer: Its value is 0.7229.

Question: And the “log2FoldChange SLC35F3” value (ENSG00000183780)?
Answer: The value was 0.8791.

Question: And the “log2FoldChange TXNRD2” value (ENSG00000184470)?
Answer: The value was 0.5869.

Question: What about the “log2FoldChange OSBP2” value (ENSG00000184792) of the same sequence?
Answer: Its value is 1.106.

Question: What about the “log2FoldChange SDR42E1” value (ENSG00000184860) of the same sequence?
Answer: Its value is 0.9762.

Question: What about the “log2FoldChange MAFF” value (ENSG00000185022) of the same sequence?
Answer: The value was 0.6847.

Question: What about the “log2FoldChange SOCS1” value (ENSG00000185338) of the same sequence?
Answer: Its value is 0.6402.

Question: What about the “log2FoldChange PMEL” value (ENSG00000185664) of the same sequence?
Answer: The value was 0.9831.

Question: What about the “log2FoldChange MYBL1” value (ENSG00000185697) of the same sequence?
Answer: Its value is 0.6266.

Question: And the “log2FoldChange PCLO” value (ENSG00000186472)?
Answer: The value was 0.6974.

Question: And the “log2FoldChange MT1X” value (ENSG00000187193)?
Answer: Its value is 0.7581.

Question: What about the “log2FoldChange MAGEH1” value (ENSG00000187601) of the same sequence?
Answer: The value was 0.7858.

Question: What about the “log2FoldChange ZFP69B” value (ENSG00000187801) of the same sequence?
Answer: The value was 0.7093.

Question: What about the “log2FoldChange ZP3” value (ENSG00000188372) of the same sequence?
Answer: The value was 0.8099.

Question: What about the “log2FoldChange C22orf34” value (ENSG00000188511) of the same sequence?
Answer: Its value is 0.661.

Question: What about the “log2FoldChange GJB3” value (ENSG00000188910) of the same sequence?
Answer: Its value is 1.136.

Question: And the “log2FoldChange GJB5” value (ENSG00000189280)?
Answer: Its value is 1.088.

Question: What about the “log2FoldChange SH2D5” value (ENSG00000189410) of the same sequence?
Answer: The value was 1.08.

Question: What about the “log2FoldChange PLEKHG4” value (ENSG00000196155) of the same sequence?
Answer: The value was 0.6321.

Question: And the “log2FoldChange CD55” value (ENSG00000196352)?
Answer: The value was 0.645.

Question: And the “log2FoldChange NUDT11” value (ENSG00000196368)?
Answer: Its value is 0.6654.

Question: What about the “log2FoldChange AC009022.1” value (ENSG00000196696) of the same sequence?
Answer: The value was 0.6881.

Question: What about the “log2FoldChange S100A2” value (ENSG00000196754) of the same sequence?
Answer: The value was 0.5809.

Question: And the “log2FoldChange SLC6A17” value (ENSG00000197106)?
Answer: The value was 1.129.

Question: And the “log2FoldChange ZNF860” value (ENSG00000197385)?
Answer: The value was 0.5877.

Question: And the “log2FoldChange VEPH1” value (ENSG00000197415)?
Answer: The value was 0.5803.

Question: What about the “log2FoldChange ZNF841” value (ENSG00000197608) of the same sequence?
Answer: Its value is 0.6523.

Question: And the “log2FoldChange SERPINB2” value (ENSG00000197632)?
Answer: Its value is 0.8127.

Question: And the “log2FoldChange PDCD1LG2” value (ENSG00000197646)?
Answer: Its value is 1.192.

Question: What about the “log2FoldChange FAM49A” value (ENSG00000197872) of the same sequence?
Answer: Its value is 0.7378.

Question: And the “log2FoldChange HRNR” value (ENSG00000197915)?
Answer: Its value is 0.6084.

Question: And the “log2FoldChange CSF2RA” value (ENSG00000198223)?
Answer: Its value is 1.103.

Question: What about the “log2FoldChange CD247” value (ENSG00000198821) of the same sequence?
Answer: The value was 1.07.

Question: What about the “log2FoldChange HSD3BP5” value (ENSG00000198857) of the same sequence?
Answer: The value was 0.8606.

Question: What about the “log2FoldChange LINC01291” value (ENSG00000204792) of the same sequence?
Answer: Its value is 0.9824.

Question: And the “log2FoldChange KRT81” value (ENSG00000205426)?
Answer: Its value is 0.8139.

Question: What about the “log2FoldChange TRBC2” value (ENSG00000211772) of the same sequence?
Answer: The value was 0.6815.

Question: And the “log2FoldChange ANG” value (ENSG00000214274)?
Answer: The value was 1.047.

Question: What about the “log2FoldChange FER1L6” value (ENSG00000214814) of the same sequence?
Answer: The value was 0.6181.

Question: What about the “log2FoldChange UBE2QL1” value (ENSG00000215218) of the same sequence?
Answer: Its value is 0.6007.

Question: What about the “log2FoldChange PLXNA4” value (ENSG00000221866) of the same sequence?
Answer: Its value is 1.101.

Question: What about the “log2FoldChange RNU2-63P” value (ENSG00000222724) of the same sequence?
Answer: Its value is 0.6055.

Question: And the “log2FoldChange ROR1-AS1” value (ENSG00000223949)?
Answer: The value was 0.9732.

Question: And the “log2FoldChange ZMIZ1-AS1” value (ENSG00000224596)?
Answer: The value was 0.9113.

Question: And the “log2FoldChange AC017002.1” value (ENSG00000224959)?
Answer: The value was 0.6679.

Question: What about the “log2FoldChange AL354740.1” value (ENSG00000225339) of the same sequence?
Answer: The value was 0.7567.

Question: What about the “log2FoldChange CFLAR-AS1” value (ENSG00000226312) of the same sequence?
Answer: The value was 0.8124.

Question: What about the “log2FoldChange AC016831.1” value (ENSG00000226380) of the same sequence?
Answer: The value was 0.8375.

Question: And the “log2FoldChange ERVMER34-1” value (ENSG00000226887)?
Answer: Its value is 0.9222.

Question: What about the “log2FoldChange AC020571.1” value (ENSG00000229056) of the same sequence?
Answer: Its value is 0.6243.

Question: And the “log2FoldChange AL589880.1” value (ENSG00000229939)?
Answer: Its value is 0.6572.

Question: What about the “log2FoldChange AL590666.2” value (ENSG00000229953) of the same sequence?
Answer: The value was 0.9636.

Question: And the “log2FoldChange LINC01293” value (ENSG00000230836)?
Answer: Its value is 1.066.

Question: What about the “log2FoldChange LINC00704” value (ENSG00000231298) of the same sequence?
Answer: Its value is 0.7366.

Question: What about the “log2FoldChange AL603650.1” value (ENSG00000232355) of the same sequence?
Answer: The value was 1.015.

Question: What about the “log2FoldChange LINC02535” value (ENSG00000234155) of the same sequence?
Answer: Its value is 1.054.

Question: What about the “log2FoldChange PINLYP” value (ENSG00000234465) of the same sequence?
Answer: Its value is 0.7137.

Question: What about the “log2FoldChange RPL13AP20” value (ENSG00000234498) of the same sequence?
Answer: The value was 1.162.

Question: And the “log2FoldChange C19orf81” value (ENSG00000235034)?
Answer: Its value is 0.9948.

Question: What about the “log2FoldChange LINC00941” value (ENSG00000235884) of the same sequence?
Answer: The value was 0.9292.

Question: What about the “log2FoldChange PNMA6A” value (ENSG00000235961) of the same sequence?
Answer: Its value is 0.8869.

Question: And the “log2FoldChange AL354719.2” value (ENSG00000236345)?
Answer: Its value is 1.16.

Question: And the “log2FoldChange GGT8P” value (ENSG00000236969)?
Answer: The value was 1.181.

Question: What about the “log2FoldChange AL138828.1” value (ENSG00000237596) of the same sequence?
Answer: Its value is 1.06.

Question: And the “log2FoldChange OXCT2P1” value (ENSG00000237624)?
Answer: Its value is 1.01.

Question: And the “log2FoldChange SPATA3-AS1” value (ENSG00000238062)?
Answer: The value was 1.082.

Question: And the “log2FoldChange AC026250.1” value (ENSG00000245522)?
Answer: Its value is 0.9507.

Question: What about the “log2FoldChange SBF2-AS1” value (ENSG00000246273) of the same sequence?
Answer: Its value is 0.9574.

Question: What about the “log2FoldChange AC104066.1” value (ENSG00000248375) of the same sequence?
Answer: The value was 0.8941.

Question: And the “log2FoldChange LINC02021” value (ENSG00000249846)?
Answer: Its value is 1.04.

Question: What about the “log2FoldChange AC091173.1” value (ENSG00000251127) of the same sequence?
Answer: The value was 1.149.

Question: And the “log2FoldChange SMG1P6” value (ENSG00000254634)?
Answer: The value was 1.045.

Question: What about the “log2FoldChange ZNF10” value (ENSG00000256223) of the same sequence?
Answer: Its value is 0.6255.

Question: What about the “log2FoldChange C17orf100” value (ENSG00000256806) of the same sequence?
Answer: The value was 0.644.

Question: What about the “log2FoldChange AC073611.1” value (ENSG00000257605) of the same sequence?
Answer: Its value is 0.6207.

Question: What about the “log2FoldChange LINC01579” value (ENSG00000258754) of the same sequence?
Answer: The value was 0.7555.

Question: What about the “log2FoldChange AC013652.1” value (ENSG00000259345) of the same sequence?
Answer: The value was 0.6859.

Question: What about the “log2FoldChange AC011468.1” value (ENSG00000260160) of the same sequence?
Answer: The value was 0.8721.

Question: What about the “log2FoldChange LINC02170” value (ENSG00000260896) of the same sequence?
Answer: Its value is 0.7455.

Question: And the “log2FoldChange LINC00622” value (ENSG00000260941)?
Answer: Its value is 0.6079.

Question: What about the “log2FoldChange EPPK1” value (ENSG00000261150) of the same sequence?
Answer: Its value is 0.7148.

Question: What about the “log2FoldChange LINC01029” value (ENSG00000265843) of the same sequence?
Answer: Its value is 0.6081.

Question: And the “log2FoldChange PCAT19” value (ENSG00000267107)?
Answer: The value was 1.193.
